# Key:
# Tolloid-like protein 2 = biological target: T1, Tolloid-like protein 2 (Homo sapiens, UniProt Q9Y6L7); experiment: Inhibition of C-terminal Avi-6x-His epitope tagged and N-terminal human RAGE signal sequence tagged recombinant human TLL2 (26 to 1015 amino acids) expressed in CHOE1A cells incubated for 60 mins with promyostatin peptide substrate by FRET based assay; type: cell-based
# T1 sequence (Q9Y6L7 whole entry): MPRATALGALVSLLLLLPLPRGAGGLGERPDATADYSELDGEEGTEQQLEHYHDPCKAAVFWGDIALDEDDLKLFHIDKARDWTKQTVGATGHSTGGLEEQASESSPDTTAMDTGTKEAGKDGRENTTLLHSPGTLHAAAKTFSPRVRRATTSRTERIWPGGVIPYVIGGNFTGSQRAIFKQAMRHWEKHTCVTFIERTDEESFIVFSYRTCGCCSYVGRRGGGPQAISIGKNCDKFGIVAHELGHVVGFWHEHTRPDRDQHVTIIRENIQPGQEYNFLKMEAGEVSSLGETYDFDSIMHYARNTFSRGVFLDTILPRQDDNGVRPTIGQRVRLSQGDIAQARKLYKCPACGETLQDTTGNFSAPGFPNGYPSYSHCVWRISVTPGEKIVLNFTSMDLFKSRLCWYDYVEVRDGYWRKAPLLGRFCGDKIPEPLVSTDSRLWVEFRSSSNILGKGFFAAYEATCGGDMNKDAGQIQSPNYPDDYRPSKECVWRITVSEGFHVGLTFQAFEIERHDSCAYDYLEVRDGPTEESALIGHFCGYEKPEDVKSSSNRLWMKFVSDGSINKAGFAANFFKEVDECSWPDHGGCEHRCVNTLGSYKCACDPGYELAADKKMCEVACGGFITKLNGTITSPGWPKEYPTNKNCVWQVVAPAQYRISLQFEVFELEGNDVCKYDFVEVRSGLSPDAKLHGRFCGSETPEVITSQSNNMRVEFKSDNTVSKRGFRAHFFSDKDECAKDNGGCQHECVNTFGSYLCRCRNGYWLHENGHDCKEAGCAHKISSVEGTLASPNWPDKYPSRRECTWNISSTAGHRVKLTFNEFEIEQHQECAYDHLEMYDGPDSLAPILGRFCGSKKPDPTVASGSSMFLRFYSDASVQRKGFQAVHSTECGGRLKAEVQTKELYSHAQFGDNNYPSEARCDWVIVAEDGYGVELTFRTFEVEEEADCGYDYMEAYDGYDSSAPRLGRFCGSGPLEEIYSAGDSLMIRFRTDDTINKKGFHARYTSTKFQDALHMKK
# [1] = Reduction in mature collagen deposition levels in human cardiac fibroblasts incubated for 24 to 48 hrs by immunostaining based assay; type: functional
# How it was run: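 Treatment of human cardiac fibroblasts took place in 96-well plates using ficoll crowding EMEM with 100 μM ascorbic acid and under 0.3% DMSO, at 37° C for 24 to 48 hr. Cells were then fixed for 10 min in −20° C methanol and stained for mature collagen I and nuclei. Collagen intensity per field was normalised to nuclei count, and GraphPad Prism was used to fit the IC50.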
# Tolloid-like protein 1 = Tolloid-like protein 1 (Homo sapiens, UniProt O43897, I156V/N221S/V284A); experiment: Inhibition of recombinant human TLL1 I156V/N221S/V284A mutant expressed in CHOE1A cells pre-incubated for 10 mins before promyostatin peptide substrate addition and measured after 60 mins by FRET based assay; type: cell-based
# [2] = biological target: T2, Bone morphogenetic protein 1 (Homo sapiens, UniProt P13497); experiment: Inhibition of C-terminal FLAG-6x-His epitope tagged and N-terminal human RAGE signal sequence tagged human BMP1 (23 to 721 amino acids) expressed in CHO-E1 cells pre-incubated for 10 mins before promyostatin peptide substrate addition and measured after 60 mins using 0.5 nM BMP1 by FRET based assay; type: cell-based
# T2 sequence (P13497 whole entry): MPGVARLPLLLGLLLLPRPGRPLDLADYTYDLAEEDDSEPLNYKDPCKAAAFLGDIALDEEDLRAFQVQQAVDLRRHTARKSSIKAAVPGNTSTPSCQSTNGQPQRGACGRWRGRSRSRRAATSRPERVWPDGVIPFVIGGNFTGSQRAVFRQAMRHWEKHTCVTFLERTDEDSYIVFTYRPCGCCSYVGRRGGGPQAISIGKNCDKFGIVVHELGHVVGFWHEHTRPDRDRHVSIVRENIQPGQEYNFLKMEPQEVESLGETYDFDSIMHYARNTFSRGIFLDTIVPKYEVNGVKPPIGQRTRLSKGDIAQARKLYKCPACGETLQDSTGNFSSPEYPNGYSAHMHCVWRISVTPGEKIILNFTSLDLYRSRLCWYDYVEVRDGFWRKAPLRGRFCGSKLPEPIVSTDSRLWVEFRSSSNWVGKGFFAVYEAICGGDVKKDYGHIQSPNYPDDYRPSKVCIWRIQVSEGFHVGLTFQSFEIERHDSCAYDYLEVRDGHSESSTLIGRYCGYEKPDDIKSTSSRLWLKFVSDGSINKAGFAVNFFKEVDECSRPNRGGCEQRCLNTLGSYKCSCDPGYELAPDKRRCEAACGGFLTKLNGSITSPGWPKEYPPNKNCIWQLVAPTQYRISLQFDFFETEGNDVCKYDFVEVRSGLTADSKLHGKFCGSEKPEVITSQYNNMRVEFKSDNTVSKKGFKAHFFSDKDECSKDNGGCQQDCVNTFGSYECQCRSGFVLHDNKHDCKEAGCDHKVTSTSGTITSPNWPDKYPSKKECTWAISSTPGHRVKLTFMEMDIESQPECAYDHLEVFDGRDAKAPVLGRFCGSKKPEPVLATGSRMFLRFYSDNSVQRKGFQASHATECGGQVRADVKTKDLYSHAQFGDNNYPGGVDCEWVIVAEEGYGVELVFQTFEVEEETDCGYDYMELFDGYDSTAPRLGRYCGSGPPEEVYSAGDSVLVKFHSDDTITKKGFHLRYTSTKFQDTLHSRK
# [3] = Reduction in PICP levels in human cardiac fibroblasts incubated for 24 to 48 hrs by ELISA; type: functional
# How it was run: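 Procollagen I C-terminal propeptide in the culture medium was quantified using a Quidel ELISA. The cells were human cardiac fibroblasts of passage 6 or below, seeded at 10,000 to 15,000 cells per well in 96-well plates and treated the next day in ficoll crowding EMEM with 100 μM ascorbic acid and under 0.3% DMSO. Treatment lasted 24 to 48 hr at 37° C. For IC50, levels normalized to untreated controls were fitted to a log(inhibitor)-response equation in GraphPad Prism.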
# [4] = biological target: T2, Bone morphogenetic protein 1; experiment: Inhibition of C-terminal FLAG-6x-His epitope tagged and N-terminal human RAGE signal sequence tagged human BMP1 (23 to 721 amino acids) expressed in CHO-E1 cells pre-incubated for 10 mins before promyostatin peptide substrate addition and measured after 30 mins using 50 nM BMP1 by FRET based assay; type: cell-based
# Tolloid-like protein 1, sequence (O43897 148-1013 I156V/N221S/V284A limits assumed): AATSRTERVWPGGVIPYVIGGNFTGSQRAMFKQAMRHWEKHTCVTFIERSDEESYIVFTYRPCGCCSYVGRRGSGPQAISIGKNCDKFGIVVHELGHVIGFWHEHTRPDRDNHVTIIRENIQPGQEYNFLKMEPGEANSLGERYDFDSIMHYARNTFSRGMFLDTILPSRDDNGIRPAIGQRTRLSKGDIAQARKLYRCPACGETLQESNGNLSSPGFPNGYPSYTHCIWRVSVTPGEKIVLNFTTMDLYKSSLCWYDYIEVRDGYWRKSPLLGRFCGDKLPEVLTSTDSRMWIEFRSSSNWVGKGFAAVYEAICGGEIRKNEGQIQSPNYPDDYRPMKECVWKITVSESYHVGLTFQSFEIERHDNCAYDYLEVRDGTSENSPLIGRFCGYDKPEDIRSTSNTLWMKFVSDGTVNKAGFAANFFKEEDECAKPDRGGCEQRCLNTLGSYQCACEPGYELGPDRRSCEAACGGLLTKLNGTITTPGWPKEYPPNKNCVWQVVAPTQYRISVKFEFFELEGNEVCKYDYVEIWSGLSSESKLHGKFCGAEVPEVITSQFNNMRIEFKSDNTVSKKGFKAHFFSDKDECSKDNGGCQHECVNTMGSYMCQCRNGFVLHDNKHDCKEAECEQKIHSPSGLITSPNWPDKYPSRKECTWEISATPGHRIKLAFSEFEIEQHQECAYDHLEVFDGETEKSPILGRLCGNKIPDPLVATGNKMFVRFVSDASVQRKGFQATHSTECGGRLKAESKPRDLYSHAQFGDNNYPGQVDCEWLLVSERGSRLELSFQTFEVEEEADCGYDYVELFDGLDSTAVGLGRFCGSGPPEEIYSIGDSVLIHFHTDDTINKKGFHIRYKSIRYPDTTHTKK
Compound,IC50 (Tolloid-like protein 2) [µM],IC50 [1] [µM],IC50 (Tolloid-like protein 1) [µM],IC50 [2] [µM],IC50 [3] [µM],IC50 [4] [µM]
CCCCC[C@H](CN(O)C=O)C(=O)NCNC(=O)c1ccc(-c2ccccc2)o1,< 0.794,< 1,< 0.398,< 0.126,< 3.98,< 0.2
CCCCC[C@@H](C(=O)NCNC(=O)c1ccc(-c2cc(OCC)cc(C(=O)O)c2)o1)[C@@H](CC)N(O)C=O,< 0.794,< 1,< 0.398,< 0.126,< 3.98,< 0.2
CCCCC[C@@H](C(=O)NCNC(=O)c1ccc(-c2ccc(P(=O)(O)O)c(OCC)c2)o1)[C@@H](CC)N(O)C=O,< 0.794,< 1,< 0.398,< 0.126,< 3.98,< 0.2
CCCCC[C@@H](C(=O)NCNC(=O)c1ccc(-c2ccccc2)o1)[C@@H](CC)N(O)C=O,< 0.794,< 1,< 0.398,< 0.126,< 3.98,< 0.2
CCCCC[C@@H](C(=O)NCNC(=O)c1ccc(-c2ccc(C(=O)N[C@@H](CC(=O)O)C(=O)O)c(OCC)c2)o1)[C@@H](CC)N(O)C=O,< 0.794,< 1,< 0.398,< 0.126,< 3.98,< 0.2
CCCCC[C@@H](C(=O)NCNC(=O)c1ccc(-c2cc(OCC)cc(P(=O)(O)O)c2)o1)[C@@H](CC)N(O)C=O,< 0.794,< 1,< 0.398,< 0.126,< 3.98,< 0.2
CCCCC[C@@H](C(=O)NCNC(=O)c1ccc(-c2cc(OCC)cc(C(=O)N[C@@H](CC(=O)O)C(=O)O)c2)o1)[C@@H](CC)N(O)C=O,< 0.794,< 1,< 0.398,< 0.126,< 3.98,< 0.2
CCCCC[C@@H](C(=O)NCNC(=O)c1ccc(-c2ccc(C(=O)O)c(O)c2)o1)[C@@H](CC)N(O)C=O,< 0.794,–,< 0.398,< 0.126,< 3.98,< 0.2
CCCCC[C@@H](C(=O)NCNC(=O)c1ccc(-c2cc(CP(=O)(O)O)cc(OCC)c2)o1)[C@@H](CC)N(O)C=O,< 0.794,< 1,< 0.398,< 0.126,< 3.98,< 0.2
CCCCC[C@@H](C(=O)NCNC(=O)c1ccc(-c2ccc(CC(=O)N[C@@H](CC(=O)O)C(=O)O)c(OCC)c2)o1)[C@@H](CC)N(O)C=O,< 0.794,< 1,< 0.398,< 0.126,< 3.98,< 0.2
CCCCC[C@@H](C(=O)NCNC(=O)c1ccc(-c2cc(OCC)c(F)c(C(=O)O)c2)o1)[C@@H](CC)N(O)C=O,< 0.794,< 1,< 0.398,< 0.126,< 3.98,< 0.2
CCCCC[C@@H](C(=O)NCNC(=O)c1ccc(-c2cc(OCC)cc(C(=O)N[C@@H](CCC(=O)O)C(=O)O)c2)o1)[C@@H](CC)N(O)C=O,< 0.794,< 1,< 0.398,< 0.126,< 3.98,< 0.2
CCCCC[C@@H](C(=O)NCNC(=O)c1ccc(-c2cc(OCC)cc(C(=O)N[C@@H](CC(=O)O)C(=O)OC(C)(C)C)c2)o1)[C@@H](CC)N(O)C=O,< 0.794,< 1,< 0.398,< 0.126,< 3.98,< 0.2
CCCCC[C@@H](C(=O)NCNC(=O)c1ccc(-c2ccc(C(=O)NCP(=O)(O)O)c(O)c2)o1)[C@@H](CC)N(O)C=O,< 0.794,–,< 0.398,< 0.126,< 3.98,< 0.2
CCCCC[C@@H](C(=O)NCNC(=O)c1ccc(-c2ccc(C(=O)NCP(=O)(O)O)cc2)o1)[C@@H](CC)N(O)C=O,< 0.794,–,< 0.398,< 0.126,< 3.98,< 0.2
CCCCC[C@@H](C(=O)NCNC(=O)c1ccc(-c2cc(OCC(=O)O)cc(P(=O)(O)O)c2)o1)[C@@H](CC)N(O)C=O,< 0.794,–,< 0.398,< 0.126,< 3.98,< 0.2
CCOc1cc(-c2ccc(C(=O)NCNC(=O)[C@H](CCc3ccccc3)[C@@H](CC)N(O)C=O)o2)cc(P(=O)(O)O)c1,< 0.794,–,< 0.398,< 0.126,< 3.98,< 0.2
CCCCC[C@@H](C(=O)NCNC(=O)c1ccc(-c2cccc(C3(C(=O)O)CC3)c2)o1)[C@@H](CC)N(O)C=O,< 0.794,< 1,< 0.398,< 0.126,< 3.98,< 0.2
CCCCC[C@@H](C(=O)NCNC(=O)c1ccc(-c2cc(OCC)cc(C(=O)O)c2O)o1)[C@@H](CC)N(O)C=O,< 0.794,< 1,< 0.398,< 0.126,< 3.98,< 0.2
CCCCC[C@@H](C(=O)NCNC(=O)c1ccc(-c2cc(OCCC)cc(C(=O)O)c2)o1)[C@@H](CC)N(O)C=O,< 0.794,< 1,< 0.398,< 0.126,< 3.98,< 0.2
CCCCC[C@@H](C(=O)NCNC(=O)c1ccc(-c2ccc(C(=O)NCP(=O)(O)O)c(C)c2)o1)[C@@H](CC)N(O)C=O,< 0.794,–,< 0.398,< 0.126,< 3.98,< 0.2
CCCCC[C@@H](C(=O)NCNC(=O)c1ccc(-c2ccc(C(=O)N(CC(=O)O)CC(=O)O)c(OCC)c2)o1)[C@@H](CC)N(O)C=O,< 0.794,< 1,< 0.398,< 0.126,< 3.98,< 0.2

# Source: ChEMBL document CHEMBL4476867, “Hydroxy formamide derivatives and their use” (2016)
